Literature values, collected in US20120263714A1, “SUBSTITUTED HALOPHENOXYBENZAMIDE DERIVATIVES” (BAYER INTELLECTUAL PROPERTY GMBH, priority 2009, published 2012).

Assays:
colon cancer = details: oral treatment, mouse models
MEK1/2 = MEK1/2 inhibitor, background statement

Question: Which results are given for `O=C(NOCC1CC1)c1ccc(F)c(F)c1Nc1ccc(I)cc1Cl` [CI-1040]?
Answer: colon cancer growth in vivo (colon cancer): inhibit colon cancer growth in vivo; IC50 (MEK1/2): low nanomolar range
